# According to ChEMBL document CHEMBL3045041, “Synthesis of novel aryl(4-substituted pyridin-3-yl)methyl carbamates and their herbicidal activity” (J Pestic Sci, 2012):
# Experiments:
# Oryza sativa [1] = assay: Phytotoxicity against Oryza sativa cv. Kinuhikari (rice) planted at 3 cm depth measured after 20 to 25 days; format: organism-based; details: in vivo
# [2] = system: Schoenoplectiella juncoides; assay: Herbicidal activity against Schoenoplectiella juncoides under greenhouse condition compound treated at 0.5 leaf stage measured after 14 to 20 days; format: functional
# Echinochloa oryzicola [3] = assay: Herbicidal activity against Echinochloa oryzicola under greenhouse condition compound treated at emergence stage measured after 14 to 20 days; format: functional
# Echinochloa oryzicola [4] = assay: Herbicidal activity against Echinochloa oryzicola at 100 g a.i/ha treated at emergence stage measured after 26 days by outdoor concrete pot test; format: functional
# Echinochloa oryzicola [5] = assay: Herbicidal activity against Echinochloa oryzicola at 200 g a.i/ha treated at emergence stage measured after 26 days by outdoor concrete pot test; format: functional
# Echinochloa oryzicola [6] = assay: Herbicidal activity against Echinochloa oryzicola under greenhouse condition compound treated at 2.5 leaf stage measured after 14 to 20 days; format: functional
# Elatine triandra [7] = assay: Herbicidal activity against Elatine triandra at 100 g a.i/ha treated at emergence stage measured after 26 days by outdoor concrete pot test; format: functional
# Elatine triandra [8] = assay: Herbicidal activity against Elatine triandra at 200 g a.i/ha treated at emergence stage measured after 26 days by outdoor concrete pot test; format: functional
# Rotala indica [9] = assay: Herbicidal activity against Rotala indica at 200 g a.i/ha treated at 2.3-leaf stage measured after 26 days by outdoor concrete pot test; format: functional
# Rotala indica [10] = assay: Herbicidal activity against Rotala indica at 300 g a.i/ha treated at 2.3-leaf stage measured after 26 days by outdoor concrete pot test; format: functional
# Rotala indica [11] = assay: Herbicidal activity against Rotala indica at 100 g a.i/ha treated at 1.6-leaf stage measured after 26 days by outdoor concrete pot test; format: functional
# Rotala indica [12] = assay: Herbicidal activity against Rotala indica at 200 g a.i/ha treated at 1.6-leaf stage measured after 26 days by outdoor concrete pot test; format: functional
# Rotala indica [13] = assay: Herbicidal activity against Rotala indica at 100 g a.i/ha treated at emergence stage measured after 26 days by outdoor concrete pot test; format: functional
# Rotala indica [14] = assay: Herbicidal activity against Rotala indica at 200 g a.i/ha treated at emergence stage measured after 26 days by outdoor concrete pot test; format: functional
# Lindernia procumbens [15] = assay: Herbicidal activity against Lindernia procumbens at 200 g a.i/ha treated at 2.3-leaf stage measured after 26 days by outdoor concrete pot test; format: functional
# Lindernia procumbens [16] = assay: Herbicidal activity against Lindernia procumbens at 300 g a.i/ha treated at 2.3-leaf stage measured after 26 days by outdoor concrete pot test; format: functional
# Lindernia procumbens [17] = assay: Herbicidal activity against Lindernia procumbens at 100 g a.i/ha treated at 1.6-leaf stage measured after 26 days by outdoor concrete pot test; format: functional
# Lindernia procumbens [18] = assay: Herbicidal activity against Lindernia procumbens at 200 g a.i/ha treated at 1.6-leaf stage measured after 26 days by outdoor concrete pot test; format: functional
# Lindernia procumbens [19] = assay: Herbicidal activity against Lindernia procumbens at 100 g a.i/ha treated at emergence stage measured after 26 days by outdoor concrete pot test; format: functional
# Lindernia procumbens [20] = assay: Herbicidal activity against Lindernia procumbens at 200 g a.i/ha treated at emergence stage measured after 26 days by outdoor concrete pot test; format: functional
# Pontederia vaginalis [21] = assay: Herbicidal activity against Monochoria vaginalis at 200 g a.i/ha treated at 2.3-leaf stage measured after 26 days by outdoor concrete pot test; format: functional
# Pontederia vaginalis [22] = assay: Herbicidal activity against Monochoria vaginalis at 300 g a.i/ha treated at 2.3-leaf stage measured after 26 days by outdoor concrete pot test; format: functional
# Pontederia vaginalis [23] = assay: Herbicidal activity against Monochoria vaginalis at 100 g a.i/ha treated at 1.6-leaf stage measured after 26 days by outdoor concrete pot test; format: functional
# Pontederia vaginalis [24] = assay: Herbicidal activity against Monochoria vaginalis at 200 g a.i/ha treated at 1.6-leaf stage measured after 26 days by outdoor concrete pot test; format: functional
# Pontederia vaginalis [25] = assay: Herbicidal activity against Monochoria vaginalis at 100 g a.i/ha treated at emergence stage measured after 26 days by outdoor concrete pot test; format: functional
# Echinochloa oryzicola [26] = assay: Herbicidal activity against Echinochloa oryzicola at 300 g a.i/ha treated at 2.3-leaf stage measured after 26 days by outdoor concrete pot test; format: functional
# Echinochloa oryzicola [27] = assay: Herbicidal activity against Echinochloa oryzicola at 200 g a.i/ha treated at 2.3-leaf stage measured after 26 days by outdoor concrete pot test; format: functional
# Echinochloa oryzicola [28] = assay: Herbicidal activity against Echinochloa oryzicola at 100 g a.i/ha treated at 1.6-leaf stage measured after 26 days by outdoor concrete pot test; format: functional
# Echinochloa oryzicola [29] = assay: Herbicidal activity against Echinochloa oryzicola at 200 g a.i/ha treated at 1.6-leaf stage measured after 26 days by outdoor concrete pot test; format: functional
# Oryza sativa [30] = assay: Phytotoxicity against Oryza sativa cv. Kinuhikari (rice) at 200 g a.i/ha treated at 1.6-leaf stage measured after 26 days by outdoor concrete pot test; format: organism-based; details: in vivo, other, 624 h
# Oryza sativa [31] = assay: Phytotoxicity against Oryza sativa cv. Kinuhikari (rice) at 100 g a.i/ha treated at emergence stage measured after 26 days by outdoor concrete pot test; format: organism-based; details: in vivo, other, 624 h
# Oryza sativa [32] = assay: Phytotoxicity against Oryza sativa cv. Kinuhikari (rice) at 200 g a.i/ha treated at emergence stage measured after 26 days by outdoor concrete pot test; format: organism-based; details: in vivo, other, 624 h
# Elatine triandra [33] = assay: Herbicidal activity against Elatine triandra at 200 g a.i/ha treated at 2.3-leaf stage measured after 26 days by outdoor concrete pot test; format: functional
# Elatine triandra [34] = assay: Herbicidal activity against Elatine triandra at 300 g a.i/ha treated at 2.3-leaf stage measured after 26 days by outdoor concrete pot test; format: functional
# Elatine triandra [35] = assay: Herbicidal activity against Elatine triandra at 100 g a.i/ha treated at 1.6-leaf stage measured after 26 days by outdoor concrete pot test; format: functional
# Elatine triandra [36] = assay: Herbicidal activity against Elatine triandra at 200 g a.i/ha treated at 1.6-leaf stage measured after 26 days by outdoor concrete pot test; format: functional
# Pontederia vaginalis [37] = assay: Herbicidal activity against Monochoria vaginalis at 200 g a.i/ha treated at emergence stage measured after 26 days by outdoor concrete pot test; format: functional
# [38] = system: Schoenoplectiella juncoides; assay: Herbicidal activity against Schoenoplectiella juncoides at 200 g a.i/ha treated at 2.3-leaf stage measured after 26 days by outdoor concrete pot test; format: functional
# [39] = system: Schoenoplectiella juncoides; assay: Herbicidal activity against Schoenoplectiella juncoides at 300 g a.i/ha treated at 2.3-leaf stage measured after 26 days by outdoor concrete pot test; format: functional
# [40] = system: Schoenoplectiella juncoides; assay: Herbicidal activity against Schoenoplectiella juncoides at 100 g a.i/ha treated at 1.6-leaf stage measured after 26 days by outdoor concrete pot test; format: functional
# [41] = system: Schoenoplectiella juncoides; assay: Herbicidal activity against Schoenoplectiella juncoides at 200 g a.i/ha treated at 1.6-leaf stage measured after 26 days by outdoor concrete pot test; format: functional
# [42] = system: Schoenoplectiella juncoides; assay: Herbicidal activity against Schoenoplectiella juncoides at 100 g a.i/ha treated at emergence stage measured after 26 days by outdoor concrete pot test; format: functional
# [43] = system: Schoenoplectiella juncoides; assay: Herbicidal activity against Schoenoplectiella juncoides at 200 g a.i/ha treated at emergence stage measured after 26 days by outdoor concrete pot test; format: functional
# Elatine triandra [44] = assay: Herbicidal activity against Elatine triandra compound treated at 1 to 2.2-leaf stage measured after 26 days by outdoor concrete pot test; format: functional
# Oryza sativa [45] = assay: Phytotoxicity against Oryza sativa cv. Kinuhikari (rice) planted at 3 cm depth measured after 26 days; format: organism-based; details: in vivo, 624 h
# Rotala indica [46] = assay: Herbicidal activity against Rotala indica compound treated at 1 to 2.2-leaf stage measured after 26 days by outdoor concrete pot test; format: functional
# Lindernia procumbens [47] = assay: Herbicidal activity against Lindernia procumbens compound treated at 1 to 2.2-leaf stage measured after 26 days by outdoor concrete pot test; format: functional
# Echinochloa oryzicola [48] = assay: Herbicidal activity against Echinochloa oryzicola compound treated at 2.5-leaf stage measured after 26 days by outdoor concrete pot test; format: functional
# [49] = system: Schoenoplectiella juncoides; assay: Herbicidal activity against Schoenoplectiella juncoides compound treated at 0.5-leaf stage measured after 26 days by outdoor concrete pot test; format: functional
# Echinochloa oryzicola [50] = assay: Herbicidal activity against Echinochloa oryzicola compound treated at emergence stage measured after 26 days by outdoor concrete pot test; format: functional
# Oryza sativa [51] = assay: Phytotoxicity against Oryza sativa cv. Kinuhikari (rice) at 200 g a.i/ha treated at 2.3-leaf stage measured after 26 days by outdoor concrete pot test; format: organism-based; details: in vivo, other, 624 h
# Oryza sativa [52] = assay: Phytotoxicity against Oryza sativa cv. Kinuhikari (rice) at 300 g a.i/ha treated at 2.3-leaf stage measured after 26 days by outdoor concrete pot test; format: organism-based; details: in vivo, other, 624 h
# Oryza sativa [53] = assay: Phytotoxicity against Oryza sativa cv. Kinuhikari (rice) at 100 g a.i/ha treated at 1.6-leaf stage measured after 26 days by outdoor concrete pot test; format: organism-based; details: in vivo, other, 624 h
# Pontederia vaginalis [54] = assay: Herbicidal activity against Monochoria vaginalis compound treated at 1.5-leaf stage measured after 26 days by outdoor concrete pot test; format: functional
# Rotala indica [55] = assay: Herbicidal activity against Rotala indica at 300 g a.i/ha treated at 1.6-leaf stage measured after 26 days by outdoor concrete pot test; format: functional
# Elatine triandra [56] = assay: Herbicidal activity against Elatine triandra at 300 g a.i/ha treated at 1.6-leaf stage measured after 26 days by outdoor concrete pot test; format: functional
# Lindernia procumbens [57] = assay: Herbicidal activity against Lindernia procumbens at 300 g a.i/ha treated at 1.6-leaf stage measured after 26 days by outdoor concrete pot test; format: functional
# [58] = system: Schoenoplectiella juncoides; assay: Herbicidal activity against Schoenoplectiella juncoides at 300 g a.i/ha treated at 1.6-leaf stage measured after 26 days by outdoor concrete pot test; format: functional
# Pontederia vaginalis [59] = assay: Herbicidal activity against Monochoria vaginalis at 300 g a.i/ha treated at 1.6-leaf stage measured after 26 days by outdoor concrete pot test; format: functional
# Echinochloa oryzicola [60] = assay: Herbicidal activity against Echinochloa oryzicola at 300 g a.i/ha treated at 1.6-leaf stage measured after 26 days by outdoor concrete pot test; format: functional
structure (smiles),measurement,setting,value
CN(C)C(=O)OC(c1cnccc1C(F)(F)F)c1cnccc1C(F)(F)F,ED20,Oryza sativa [1],< 250 gAi/ha
same,ED80,[2],63 gAi/ha
same,ED80,Echinochloa oryzicola [3],63 gAi/ha
CN(C)C(=O)OC(c1cnccc1C(F)(F)F)c1cccc2ccccc12 (racemic),Efficacy,Echinochloa oryzicola [4],100%
same,Efficacy,Echinochloa oryzicola [5],100%
same,ED20,Oryza sativa [1],2000 gAi/ha
same,ED80,[2],250 gAi/ha
same,ED80,Echinochloa oryzicola [6],125 gAi/ha
same,ED80,Echinochloa oryzicola [3],31 gAi/ha
same,Efficacy,Elatine triandra [7],100%
same,Efficacy,Elatine triandra [8],100%
same,Efficacy,Rotala indica [9],100%
same,Efficacy,Rotala indica [10],100%
same,Efficacy,Rotala indica [11],100%
same,Efficacy,Rotala indica [12],100%
same,Efficacy,Rotala indica [13],100%
same,Efficacy,Rotala indica [14],100%
same,Efficacy,Lindernia procumbens [15],100%
same,Efficacy,Lindernia procumbens [16],100%
same,Efficacy,Lindernia procumbens [17],100%
same,Efficacy,Lindernia procumbens [18],100%
same,Efficacy,Lindernia procumbens [19],100%
same,Efficacy,Lindernia procumbens [20],100%
same,Efficacy,Pontederia vaginalis [21],99%
same,Efficacy,Pontederia vaginalis [22],100%
same,Efficacy,Pontederia vaginalis [23],89%
same,Efficacy,Pontederia vaginalis [24],100%
same,Efficacy,Pontederia vaginalis [25],100%
same,Efficacy,Echinochloa oryzicola [26],95%
same,Efficacy,Echinochloa oryzicola [27],95%
same,Efficacy,Echinochloa oryzicola [28],95%
same,Efficacy,Echinochloa oryzicola [29],95%
same,Efficacy,Oryza sativa [30],0%
same,Efficacy,Oryza sativa [31],11%
same,Efficacy,Oryza sativa [32],16%
same,Efficacy,Elatine triandra [33],100%
same,Efficacy,Elatine triandra [34],100%
same,Efficacy,Elatine triandra [35],100%
same,Efficacy,Elatine triandra [36],100%
same,Efficacy,Pontederia vaginalis [37],100%
same,Efficacy,[38],0%
same,Efficacy,[39],0%
same,Efficacy,[40],0%
same,Efficacy,[41],0%
same,Efficacy,[42],0%
same,Efficacy,[43],0%
same,ED80,Elatine triandra [44],100 gAi/ha
same,ED20,Oryza sativa [45],2000 gAi/ha
same,ED80,Rotala indica [46],100 gAi/ha
same,ED80,Lindernia procumbens [47],100 gAi/ha
same,ED80,Echinochloa oryzicola [48],125 gAi/ha
same,ED80,[49],250 gAi/ha
same,ED80,Echinochloa oryzicola [50],31 gAi/ha
same,Efficacy,Oryza sativa [51],0%
same,Efficacy,Oryza sativa [52],6%
same,Efficacy,Oryza sativa [53],0%
"CN(C)C(=O)OC(c1cnccc1C(F)(F)F)c1cccc2ccccc12 (single isomer, unassigned; (+))",ED20,Oryza sativa [45],1000 gAi/ha
same,ED80,[49],>500 gAi/ha
same,ED80,Echinochloa oryzicola [50],125 gAi/ha
"CN(C)C(=O)OC(c1cnccc1C(F)(F)F)c1cccc2ccccc12 (single isomer, unassigned; (-))",ED80,Elatine triandra [44],<63 gAi/ha
same,ED20,Oryza sativa [45],500 gAi/ha
same,ED80,Rotala indica [46],<63 gAi/ha
same,ED80,Lindernia procumbens [47],<63 gAi/ha
same,ED80,Pontederia vaginalis [54],<100 gAi/ha
same,ED80,Echinochloa oryzicola [48],<63 gAi/ha
same,ED80,[49],125 gAi/ha
same,ED80,Echinochloa oryzicola [50],<31 gAi/ha
CCN(CC)C(=O)n1cnc(S(=O)(=O)c2c(C)cc(C)cc2C)n1 [CAFENSTROLE],Efficacy,Rotala indica [10],99%
same,Efficacy,Lindernia procumbens [16],99%
same,Efficacy,Pontederia vaginalis [22],0%
same,Efficacy,Echinochloa oryzicola [26],95%
same,Efficacy,Elatine triandra [34],99%
same,Efficacy,[39],0%
same,Efficacy,Rotala indica [55],100%
same,Efficacy,Elatine triandra [56],100%
same,Efficacy,Lindernia procumbens [57],100%
same,Efficacy,[58],0%
same,Efficacy,Pontederia vaginalis [59],50%
same,Efficacy,Echinochloa oryzicola [60],100%
same,Efficacy,Oryza sativa [52],0%
